Results published in patent publication US20170121344A1 (Siga Technologies, Inc., priority 2009, published 2017).
Like-named read-outs stand apart in the source and are kept apart here.

Key:
DENV-3 = experiment: Viral yield assay against DENV-3 in Vero cells; type: cell-based; details: Dengue virus
Method: (§1) Compounds that were active in the primary screen were tested for activity in viral yield assays. […] Vero cells in 12-well plates were infected with dengue-2 virus at a multiplicity of infection (MOI) of 0.1, treated with compound (or DMSO as a control), incubated at 37° C., harvested 48 hours post infection and titered on Vero cells as described above. The EC50 was calculated through ExcelFit. Activities against other serotypes of dengue virus were determined in a similar way.

[1] = tested on: Dengue-2 (Strain New Guinea C); experiment: Viral yield assay against Dengue-2 in Vero cells; type: cell-based, Dengue virus; details: Dengue virus, read-out: Activity (EC50 in μM) DENV-2
In short: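 Progeny virus from compound-treated Vero monolayers infected at an MOI of 0.1 is collected after 48 h at 37° C and titered on Vero cells. DMSO serves as control.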

DENV-1 = experiment: Viral yield assay against DENV-1 in Vero cells; type: cell-based; details: Dengue virus
Method: as §1

DENV-4 = experiment: Viral yield assay against DENV-4 in Vero cells; type: cell-based; details: Dengue virus
Method: as §1

[2] = DENV2, viral yield assay, Vero cells, MOI 0.1, 48 hours post infection

Row | SMILES | EC50 (DENV-3; DENV3, viral yield assay) | EC50 [1, 2] | EC50 (DENV-1; DENV1, viral yield assay) | EC50 (DENV-4; DENV4, viral yield assay) | EC50 (DENV-3; DENV3) | EC50 ([1]; DENV2, Vero cells) | EC50 (DENV-1; DENV1) | EC50 (DENV-4; DENV4) | EC50 ([1]; DENV2, Vero, 48 h)
1 | Cc1cccc2cc3c(N)c(C(=O)Nc4cccc(C(F)(F)F)c4)sc3nc12 [Compound 364, 3-amino-8-methyl-N-(3-(trifluoromethyl)phenyl)thieno [2,3-b]quinoline-2-carboxamide] | < 5 µM | < 5 µM | < 5 µM | < 5 µM |  |  |  |  | 
2 | Nc1c(C(=O)Nc2ccccc2)sc2nc(-c3ccc(Cl)cc3)ccc12 [Compound 631, 3-amino-6-(4-chlorophenyl)-N-phenyl-thieno[2,3-b]pyridine-2-carboxamide] | < 5 µM | < 5 µM | < 5 µM | < 5 µM |  |  |  |  | 
3 | Cc1ccc(NC(=O)c2sc3nc(-c4ccc5c(c4)OCO5)ccc3c2N)cc1Cl [Compound 529, 3-amino-6-(1,3-benzodioxol-5-yl)-N-(3-chloro-4-methyl-phenyl)thieno[2,3-b] pyridine-2-carboxamide] | < 5 µM | < 5 µM | < 5 µM | < 5 µM |  |  |  |  | 
4 | COc1cccc(-c2ccc3c(N)c(C(=O)Nc4ccccc4Oc4ccccc4)sc3n2)c1 [Compound 522, 3-amino-6-(3-methoxyphenyl)-N-(2-phenoxyphenyl)thieno[2,3-b]pyridine-2-carboxamide] | < 5 µM | < 5 µM | < 5 µM | < 5 µM |  |  |  |  | 
5 | COc1ccc(-c2ccc3c(N)c(C(=O)Nc4ccc(C)c(C)c4)sc3n2)cc1OC [Compound 577, 3-amino-6-(3,4-dimethoxyphenyl)-N-(3,4-dimethylphenyl)thieno[2,3-b] pyridine-2-carboxamide] | < 5 µM | < 5 µM | < 5 µM | < 5 µM |  |  |  |  | 
6 | O=C(Nc1c(C(=O)Nc2nnc(-c3ccccc3)s2)sc2nc3c(cc12)CCCCC3)c1ccccc1 [Compound 285, 3-benzamido-N-(5-phenyl-1,3,4-thiadiazol-2-yl)-6,7,8,9-tetrahydro-5H-cyclohepta[b]thieno[3,2-e]pyridine-2-carboxamide] |  |  |  |  | < 5 µM | < 5 µM | < 5 µM | < 5 µM | 
7 | Cc1ccc(NC(=O)c2sc3nc(-c4ccc(F)cc4)ccc3c2N)cc1F [Compound 612, 3-amino-N-(3-fluoro-4-methyl-phenyl)-6-(4-fluorophenyl)thieno[2,3-b]pyridine-2-carboxamide] | < 5 µM | < 5 µM | < 5 µM | < 5 µM |  |  |  |  | 
8 | O=C1CCC(=O)N(c2cccc(C(F)(F)F)c2)C(=O)c2sc3nc(-c4cccs4)ccc3c2N1 [Compound 306, 2-(thiophen-2-yl)-10-(3-(trifluoromethyl)phenyl)-7,8-dihydro-5H-pyrido[3′,2′:4,5]thieno[3,2-b][1,5]diazonine-6,9,11(10H)-trione] | < 5 µM | < 5 µM | < 5 µM | < 5 µM |  |  |  |  | 
9 | COc1cccc(-c2ccc3c(N)c(C(=O)Nc4cccc(Br)c4)sc3n2)c1 [Compound 447, 3-amino-N-(3-bromophenyl)-6-(3-methoxyphenyl)thieno[2,3-b]pyridine-2-carboxamide] | < 5 µM | < 5 µM | < 5 µM | < 5 µM |  |  |  |  | 
10 | Nc1c(C(=O)Nc2ccc(OC(F)F)cc2)sc2nc(-c3cccc(OC(F)F)c3)ccc12 [Compound 345, 3-amino-6-[3-(difluoromethoxy)phenyl]-N-[4-(difluoromethoxy)phenyl]thieno[2,3-b]pyridine-2-carboxamide] | < 5 µM | < 5 µM | < 5 µM | < 5 µM |  |  |  |  | 
11 | COc1ccc(-c2ccc3c(N)c(C(=O)Nc4ccc(Br)c(C(F)(F)F)c4)sc3n2)cc1OC [Compound 583, 3-amino-N-[4-bromo-3-(trifluoromethyl)phenyl]-6-(3,4-dimethoxyphenyl)thieno [2,3-b]pyridin-2-carboxamide] | < 5 µM | < 5 µM | < 5 µM | < 5 µM |  |  |  |  | 
12 | COc1cccc(-c2ccc3c(N)c(C(=O)Nc4ccc(Br)c(C)c4)sc3n2)c1 [Compound 550, 3-amino-N-(4-bromo-3-methyl-phenyl)-6-(3-methoxyphenyl)thieno[2,3-b] pyridine-2-carboxamide] | < 5 µM | < 5 µM | < 5 µM | < 5 µM |  |  |  |  | 
13 | COc1ccc(-c2ccc3c(N)c(C(=O)Nc4ccc(C(F)(F)F)cc4)sc3n2)cc1 [Compound 492, 3-amino-6-(4-methoxyphenyl)-N-[4-(trifluoromethyl)phenyl]thieno[2,3-b] pyridine-2-carboxamide] | < 5 µM | < 5 µM | < 5 µM | < 5 µM |  |  |  |  | 
14 | Nc1c(C(=O)Nc2ccc(C(F)(F)F)cc2)sc2nc(-c3ccncc3)ccc12 [Compound 465, 3-amino-6-(4-pyridyl)-N-[4-(trifluoromethyl)phenyl]thieno[2,3-b] pyridine-2-carboxamide] | < 5 µM | < 5 µM | < 5 µM | < 5 µM |  |  |  |  | 
15 | CC(=O)c1ccc2c(N)c(C(=O)Nc3ccc(C(F)(F)F)cc3)sc2n1 [Compound 483, 6-acetyl-3-amino-N-[4-(trifluoromethyl)phenyl]thieno[2,3-b] pyridine-2-carboxamide] | < 5 µM | < 5 µM | < 5 µM | < 5 µM |  |  |  |  | 
16 | Nc1c(C(=O)Nc2ccc(Br)cc2F)sc2nc(-c3ccc(F)cc3)ccc12 [Compound 616, 3-amino-N-(4-bromo-2-fluoro-phenyl)-6-(4-fluorophenyl)thieno[2,3-b]pyridine-2-carboxamide] | < 5 µM | < 5 µM | < 5 µM | < 5 µM |  |  |  |  | 
17 | O=C(Nc1c(C(=O)Nc2nnc(-c3ccccc3)s2)sc2nc3c(cc12)CCCCC3)c1ccccn1 [Compound 360, N-(5-phenyl-1,3,4-thiadiazol-2-yl)-3-(picolinamido)-6,7,8,9-tetrahydro-5H-cyclohepta[b]thieno[3,2-e]pyridine-2-carboxamide] |  |  |  |  | > 25 µM | < 5 µM | > 25 µM | < 5 µM | 
18 | O=C(Nc1c(C(=O)Nc2nnc(-c3ccccc3)s2)sc2nc3c(cc12)CCCCC3)c1ccncc1 [Compound 298, 3-(isonicotinamido)-N-(5-phenyl-1,3,4-thiadiazol-2-yl)-6,7,8,9-tetrahydro-5H-cyclohepta[b]thieno[3,2-e]pyridine-2-carboxamide] |  |  |  |  | < 5 µM | < 5 µM | < 5 µM | < 5 µM | 
19 | COc1cccc(-c2ccc3c(N)c(C(=O)Nc4ccc(C)c(C)c4)sc3n2)c1 [Compound 546, 3-amino-N-(3,4-dimethylphenyl)-6-(3-methoxyphenyl)thieno[2,3-b]pyridine-2-carboxamide] | < 5 µM | < 5 µM | < 5 µM | < 5 µM |  |  |  |  | 
20 | Nc1c(C(=O)Nc2ccc(Cl)cc2F)sc2nc(-c3ccc(F)cc3)ccc12 [Compound 617, 3-amino-N-(4-chloro-2-fluoro-phenyl)-6-(4-fluorophenyl)thieno[2,3-b]pyridine-2-carboxamide] | < 5 µM | < 5 µM | < 5 µM | < 5 µM |  |  |  |  | 
21 | Nc1c(C(=O)Nc2ccc(F)c(F)c2)sc2nc(-c3cc(Cl)ccc3Cl)ccc12 [Compound 630, 3-amino-6-(2,5-dichlorophenyl)-N-(3,4-difluorophenyl)thieno[2,3-b]pyridine-2-carboxamide] | < 5 µM | < 5 µM | < 5 µM | < 5 µM |  |  |  |  | 
22 | Nc1c(C(=O)Nc2ccc(Br)cc2)sc2nc(-c3ccco3)ccc12 [Compound 439, 3-amino-N-(4-bromophenyl)-6-(2-furyl)thieno[2,3-b]pyridine-2-carboxamide] | < 5 µM |  | < 5 µM | < 5 µM |  |  |  |  | < 5 µM
23 | Cc1ccc(NC(=O)c2sc3nc(-c4cccs4)ccc3c2N)cc1F [Compound 458, 3-amino-N-(3-fluoro-4-methyl-phenyl)-6-(2-thienyl)thieno [2,3-b]pyridine-2-carboxamide] | < 5 µM | < 5 µM | < 5 µM | < 5 µM |  |  |  |  | 
24 | Nc1c(C(=O)Nc2nnc(-c3ccccc3)s2)sc2nc3c(cc12)C(F)CCCC3 (stereo not drawn) [Compound 330] | 5 to 25 µM | < 5 µM | 5 to 25 µM | 5 to 25 µM |  |  |  |  | 
25 | COC(OC)c1ccc2c(N)c(C(=O)Nc3ccc(C(F)(F)F)cc3)sc2n1 [Compound 482, 3-amino-6-(dimethoxymethyl)-N-[4-(trifluoromethyl)phenyl]thieno[2,3-b] pyridine-2-carboxamide] | < 5 µM | < 5 µM | < 5 µM | < 5 µM |  |  |  |  | 
26 | COc1ccc(C(F)(F)F)cc1NC(=O)c1sc2nc(-c3ccc4c(c3)OCO4)ccc2c1N [Compound 599, 3-amino-6-(1,3-benzodioxol-5-yl)-N-[2-methoxy-5-(trifluoromethyl)phenyl]thieno [2,3-b]pyridine-2-carboxamide] | < 5 µM | < 5 µM | < 5 µM | < 5 µM |  |  |  |  | 
27 | COc1cccc(-c2ccc3c(N)c(C(=O)Nc4ccc(C(F)(F)F)cc4)sc3n2)c1 [Compound 448, 3-amino-6-(3-methoxyphenyl)-N-[4-(trifluoromethyl)phenyl]thieno[2,3-b] pyridine-2-carboxamide] | < 5 µM | < 5 µM | < 5 µM | < 5 µM |  |  |  |  | 
